Measurements reported in US9868711B2, “Phenazine-3-one and phenothiazine-3-one derivatives for treatment of oxidative stress disorders” (BioElectron Technology Corporation, priority 2013, dated 2018).
Read-outs that look alike come from different tables or passages of the source.

Tested on: Human dermal fibroblasts from Friedreich's Ataxia patients
Experiment: Rescue of FRDA fibroblasts stressed by BSO (Calcein AM viability)
Format: cell-based
Details: FRDA fibroblasts GM04078, 1 mM BSO, 48 h
Method: An initial screen was performed to identify compounds effective for the amelioration of redox disorders. Test samples, 4 reference compounds (idebenone, decylubiquinone, Trolox and alpha-tocopherol), and solvent controls were tested for their ability to rescue FRDA fibroblasts stressed by addition of L-buthionine-(S,R)-sulfoximine (BSO), as described in Jauslin et al., Hum. Mol. Genet. 11(24):3055 (2002), Jauslin et al., FASEB J. 17:1972-4 (2003), and International Patent Application WO 2004/003565. […] This specific BSO-mediated cell death can be prevented by administration of antioxidants or molecules involved in the antioxidant pathway, such as alpha-tocopherol, selenium, or small molecule glutathione peroxidase mimetics. However, antioxidants differ in their potency, i.e. the concentration at which they are able to rescue BSO-stressed FRDA fibroblasts.
MEM (a medium enriched in amino acids and vitamins, catalog no. 1-31F24-I) and Medium 199 (M199, catalog no. 1-21F22-I) with Earle's Balanced Salts, without phenol red, were purchased from Bioconcept. Fetal Calf Serum was obtained from PAA Laboratories. Basic fibroblast growth factor and epidermal growth factor were purchased from PeproTech. Penicillin-streptomycin-glutamine mix, L-buthionine (S,R)-sulfoximine, (+)-alpha-tocopherol, decylubiquinone, and insulin from bovine pancreas were purchased from Sigma. Trolox (6-Hydroxy-2,5,7,8-tetramethylchromane-2-carboxylic acid) was obtained from Fluka. Idebenone was obtained from Chemo Iberica. Calcein AM was purchased from Anaspec. Cell culture medium was made by combining 125 ml M199 EBS, 50 ml Fetal Calf Serum, 100 U/ml penicillin, 100 microgram/ml streptomycin, 2 mM glutamine, 10 microgram/ml insulin, 10 ng/ml EGF, and 10 ng/ml bFGF; MEM EBS was added to make the volume up to 500 ml. A 10 mM BSO solution was prepared by dissolving 444 mg BSO in 200 ml of medium (Invitrogen, Carlsbad, Ca.) with subsequent filter-sterilization. During the course of the experiments, this solution was stored at +4° C. The cells were obtained from the Coriell Cell Repositories (Camden, N.J.; repository number GM04078) and grown in 10 cm tissue culture plates. Every third day, they were split at a 1:3 ratio.
The test samples were supplied in 1.5 ml glass vials. The compounds were diluted with DMSO, ethanol or PBS to result in a 5 mM stock solution. Once dissolved, they were stored at −20° C. Reference antioxidants (idebenone, decylubiquinone, alpha-tocopherol and Trolox) were dissolved in DMSO.
Test samples were screened according to the following protocol:
A culture with FRDA fibroblasts was started from a 1 ml vial with approximately 500,000 cells stored in liquid nitrogen. Cells were propagated in 10 cm cell culture dishes by splitting every third day in a ratio of 1:3 until nine plates were available. Once confluent, fibroblasts were harvested. For 54 micro titer plates (96 well-MTP) a total of 14.3 million cells (passage eight) were re-suspended in 480 ml medium, corresponding to 100 microliters medium with 3,000 cells/well. The remaining cells were distributed in 10 cm cell culture plates (500,000 cells/plate) for propagation. The plates were incubated overnight at 37° C. in a atmosphere with 95% humidity and 5% CO2 to allow attachment of the cells to the culture plate.
10% DMSO (242.5 microliters) was added to a well of the microtiter plate. The test compounds were unfrozen, and 7.5 microliters of a 5 mM stock solution was dissolved in the well containing 242.5 microliters of 10% DMSO, resulting in a 150 micromolar master solution. Serial dilutions from the master solution were made. The period between the single dilution steps was kept as short as possible (generally less than 30 seconds). At least 4 hours after attachment into MTP, cells were then treated with the various compound dilutions.
Plates were kept overnight in the cell culture incubator. […]

[1] = Homo sapiens, average, compounds of the invention, read-out: Ec50 Average

`Cc1c(C)c2c(c(C)c1O)CC[C@@](C)(CCC[C@H](C)CCC[C@H](C)CCCC(C)C)O2` [alpha-tocopherol] showed an EC50 (average of three values, control compounds, read-out: EC50 Average) of 300 nM, an EC50 (first of three experiments, read-out: EC50 Value 1) of 400 nM and an EC50 (second of three experiments, read-out: EC50 Value 2) of 150 nM. It also gave an EC50 (third of three experiments, read-out: EC50 Value 3) of 350 nM.

In the case of `Cc1c(C)c2c(c(C)c1O)CCC(C)(C(=O)O)O2` (stereo not drawn) [Trolox, 6-Hydroxy-2,5,7,8-tetramethylchromane-2-carboxylic acid], the EC50 (Homo sapiens, first of three experiments, read-out: EC50 Value 1) is reported as 9000 nM.

Molecule `COC1=C(OC)C(=O)C(CCCCCCCCCCO)=C(C)C1=O` [Idebenone] has an EC50 (Homo sapiens, third of three experiments, read-out: EC50 Value 3) of 1000 nM.

For `CN(C)c1ccc2nc3ccc(=O)cc-3sc2c1` [Compound 2], the EC50 [1] was 3 nM.

`Cc1cc(=O)c(C)c2sc3ccccc3nc1-2` [Compound 1] was tested, and the EC50 [1] was 3 nM.

In the case of `O=c1ccc2nc3ccc(C(F)(F)F)cc3sc-2c1` [Compound 3], the EC50 [1] is reported as 28 nM.
